In ChEMBL document CHEMBL1148675, “Protein microarrays to study carbohydrate-recognition events” (Bioorg Med Chem Lett, 2006):
The source made the active and inactive calls. The calls are words filed in the database; no cut-off is given here.

Assays:
Homo sapiens [1] = species: Homo sapiens; assay: Binding affinity to collagenase by microarray at 0.5 uM
[2] = molecular target: Streptavidin (Streptomyces avidinii) (UniProt P22629); assay: Binding affinity to streptavidin by microarray
Homo sapiens [3] = species: Homo sapiens; assay: Binding affinity to GST by microarray at 0.5 uM
Aleuria aurantia = assay: Binding affinity to Aleuria Aurantia lectin by microarray at 0.5 uM
Triticum aestivum = assay: Binding affinity to wheat germ agglutinin by microarray at 0.5 uM
[4] = molecular target: T1, Ovalbumin (Gallus gallus) (UniProt P01012); assay: Binding affinity to ovalbumin by microarray at 0.5 uM
T1 sequence (whole entry): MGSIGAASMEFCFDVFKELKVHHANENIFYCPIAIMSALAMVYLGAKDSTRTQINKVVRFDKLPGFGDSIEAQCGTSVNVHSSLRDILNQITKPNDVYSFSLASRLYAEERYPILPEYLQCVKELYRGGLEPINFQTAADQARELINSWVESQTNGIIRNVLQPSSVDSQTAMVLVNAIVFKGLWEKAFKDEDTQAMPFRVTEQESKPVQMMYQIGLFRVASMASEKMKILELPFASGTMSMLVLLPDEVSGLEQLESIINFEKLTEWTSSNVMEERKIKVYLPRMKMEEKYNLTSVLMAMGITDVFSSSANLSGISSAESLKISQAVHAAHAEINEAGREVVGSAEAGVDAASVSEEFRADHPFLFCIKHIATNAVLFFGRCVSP

Homo sapiens [5] = species: Homo sapiens; assay: Binding affinity to amylase by microarray at 0.5 uM
Homo sapiens [6] = species: Homo sapiens; assay: Binding affinity to RNase A by microarray at 0.5 uM
Insulin (Homo sapiens) = Insulin (Homo sapiens) (UniProt P01308); assay: Binding affinity to insulin by microarray at 0.5 uM
Chain of Insulin (Homo sapiens) (P01308 whole entry): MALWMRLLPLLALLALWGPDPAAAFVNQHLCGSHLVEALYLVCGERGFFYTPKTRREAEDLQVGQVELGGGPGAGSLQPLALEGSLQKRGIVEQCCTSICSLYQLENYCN

Homo sapiens [7] = species: Homo sapiens; assay: Binding affinity to hyaluronidase by microarray at 0.5 uM
Homo sapiens [8] = species: Homo sapiens; assay: Binding affinity to alkaline phosphatase by microarray at 0.5 uM
Homo sapiens [9] = species: Homo sapiens; assay: Binding affinity to pepsin by microarray at 0.5 uM
Trypsin (Homo sapiens) = Trypsin (Homo sapiens) (UniProt P07477+P07478+P35030); assay: Binding affinity to trypsin by microarray at 0.5 uM; format: protein assay
Homo sapiens [10] = species: Homo sapiens; assay: Binding affinity to myokinase by microarray at 0.5 uM
Sambucus nigra = assay: Binding affinity to Sambucus nigra A lectin by microarray at 0.5 uM
[11] = molecular target: Antithrombin-III (Homo sapiens) (UniProt P01008); assay: Binding affinity to antithrombin by microarray at 0.5 uM
Chain of Antithrombin-III (Homo sapiens) (P01008 whole entry): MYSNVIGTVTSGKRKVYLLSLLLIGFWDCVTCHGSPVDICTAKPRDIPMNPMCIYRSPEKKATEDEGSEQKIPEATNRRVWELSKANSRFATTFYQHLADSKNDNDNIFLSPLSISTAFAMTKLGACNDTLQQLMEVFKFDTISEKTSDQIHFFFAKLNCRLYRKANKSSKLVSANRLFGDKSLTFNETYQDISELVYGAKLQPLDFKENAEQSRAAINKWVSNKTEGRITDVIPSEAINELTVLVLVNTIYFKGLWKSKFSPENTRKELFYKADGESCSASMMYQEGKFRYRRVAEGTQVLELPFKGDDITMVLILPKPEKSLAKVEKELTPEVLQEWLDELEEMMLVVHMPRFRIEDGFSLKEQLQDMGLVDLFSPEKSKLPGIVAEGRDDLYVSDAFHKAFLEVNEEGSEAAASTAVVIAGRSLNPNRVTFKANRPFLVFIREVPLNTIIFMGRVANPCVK

Canavalia = assay: Binding affinity to Concanavalin A by microarray at 0.5 uM
[12] = molecular target: Prothrombin (Homo sapiens) (UniProt P00734); assay: Binding affinity to thrombin by microarray at 0.5 uM
Ricinus communis = assay: Binding affinity to Ricinus communis agglutinin 120 by microarray at 0.5 uM
[13] = Inhibition of trivalent GlcNAc binding to wheat germ agglutinin with irradiation by microarray; parameters: species or system Triticum aestivum
[14] = Inhibition of trivalent GlcNAc binding to wheat germ agglutinin without irradiation by microarray; parameters: species or system Triticum aestivum

Chain of Streptavidin (Streptomyces avidinii) (P22629 whole entry): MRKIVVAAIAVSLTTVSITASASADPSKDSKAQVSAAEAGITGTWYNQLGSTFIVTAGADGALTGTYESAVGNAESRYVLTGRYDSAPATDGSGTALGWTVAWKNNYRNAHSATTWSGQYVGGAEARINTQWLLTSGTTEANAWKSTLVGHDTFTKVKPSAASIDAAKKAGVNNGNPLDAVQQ

Row | SMILES | Activity (Homo sapiens [1]) | Activity [2] | Activity (Homo sapiens [3]) | Activity (Aleuria aurantia) | Activity (Triticum aestivum) | Activity [4] | Activity (Homo sapiens [5]) | Activity (Homo sapiens [6]) | Activity (Insulin (Homo sapiens)) | Activity (Homo sapiens [7]) | Activity (Homo sapiens [8]) | Activity (Homo sapiens [9]) | Activity (Trypsin (Homo sapiens)) | Activity (Homo sapiens [10]) | Activity (Sambucus nigra) | Activity [11] | Activity (Canavalia) | Activity [12] | also measured
1 | C[C@H]1O[C@H](OCCNC(=O)CCC(=O)NCCCC[C@H](NC(=O)CCC(=O)NCCO[C@H]2O[C@H](C)[C@H](O)[C@H](O)[C@H]2O)C(=O)N[C@@H](CCCCNC(=O)[C@H](COCc2ccc(C(=O)c3ccccc3)cc2)NC(=O)CCC(=O)NCCO[C@H]2O[C@H](C)[C@H](O)[C@H](O)[C@H]2O)C(=O)NCCCOCCOCCOCCCNC(=O)CCC(=O)NCCOCCOCCNC(=O)CCCCN2CCC(C)(C)/C2=C\C=C\C2=[N+](C)c3ccccc3C2(C)C)[C@H](O)[C@@H](O)[C@H]1O | inactive | inactive | inactive | Active | inactive | inactive | inactive | inactive | inactive | inactive | inactive | inactive | inactive | inactive | inactive | inactive | inactive | inactive | –
2 | CC(=O)N[C@H]1[C@@H](OCCNC(=O)CCC(=O)NCCCC[C@H](NC(=O)CCC(=O)NCCO[C@H]2O[C@H](CO)[C@@H](O[C@@H]3O[C@H](CO)[C@H](O)[C@H](O)[C@H]3O)[C@H](O)[C@H]2NC(C)=O)C(=O)N[C@@H](CCCCNC(=O)[C@H](COCc2ccc(C(=O)c3ccccc3)cc2)NC(=O)CCC(=O)NCCO[C@H]2O[C@H](CO)[C@@H](O[C@@H]3O[C@H](CO)[C@H](O)[C@H](O)[C@H]3O)[C@H](O)[C@H]2NC(C)=O)C(=O)NCCCOCCOCCOCCCNC(=O)CCC(=O)NCCOCCOCCNC(=O)CCCCN2CCC(C)(C)/C2=C\C=C\C2=[N+](C)c3ccccc3C2(C)C)O[C@H](CO)[C@@H](O[C@@H]2O[C@H](CO)[C@H](O)[C@H](O)[C@H]2O)[C@@H]1O | inactive | inactive | inactive | inactive | Active | inactive | inactive | inactive | inactive | inactive | inactive | inactive | inactive | inactive | inactive | inactive | inactive | inactive | Activity (Ricinus communis): Active
3 | CC(=O)N[C@H]1[C@H](OCCNC(=O)CCC(=O)NCCCC[C@H](NC(=O)CCC(=O)NCCO[C@@H]2O[C@H](CO)[C@@H](O)[C@H](O)[C@H]2NC(C)=O)C(=O)N[C@@H](CCCCNC(=O)[C@H](COCc2ccc(C(=O)c3ccccc3)cc2)NC(=O)CCC(=O)NCCO[C@@H]2O[C@H](CO)[C@@H](O)[C@H](O)[C@H]2NC(C)=O)C(=O)NCCCOCCOCCOCCCNC(=O)CCC(=O)NCCOCCOCCNC(=O)CCCCN2CCC(C)(C)/C2=C\C=C\C2=[N+](C)c3ccccc3C2(C)C)O[C@H](CO)[C@@H](O)[C@@H]1O | inactive | inactive | inactive | inactive | Active | inactive | inactive | inactive | inactive | inactive | inactive | inactive | inactive | inactive | inactive | inactive | inactive | inactive | IC50 [13]: 17 mM; IC50 [14]: 7.9 mM
